Data: patent US8932597B2 (priority 2008, dated 2015)

Test system: anti-M2 human monoclonal antibody Z3G1
Format: binding

Substance	Signal (peptides that bind to Z3G1)	Signal (peptides that show specific binding to Z3G1)
1496 (CEVETPIRNELLTEVETPICVETPIRNEW; epitope peptide; MISC_FEATURE (1)..(1): C is an attachment site for a CLIP; MISC_FEATURE (10)..(10): E is an attachment site for a CLIP; MISC_FEATURE (11)..(11): L is an attachment site for a CLIP; MISC_FEATURE (29)..(29): W is an attachment site for a CLIP) [compound 1496]	1625	–
1497 (CVETPIRNEWLLTEVETPICVETPIRNEW; epitope peptide; MISC_FEATURE (1)..(1): C is an attachment site for a CLIP; MISC_FEATURE (10)..(10): W is an attachment site for a CLIP; MISC_FEATURE (11)..(11): L is an attachment site for a CLIP; MISC_FEATURE (29)..(29): W is an attachment site for a CLIP) [compound 1497]	1817	–
1498 (CETPIRNEWGLLTEVETPICVETPIRNEW; epitope peptide; MISC_FEATURE (1)..(1): C is an attachment site for a CLIP; MISC_FEATURE (10)..(10): G is an attachment site for a CLIP; MISC_FEATURE (11)..(11): L is an attachment site for a CLIP; MISC_FEATURE (29)..(29): W is an attachment site for a CLIP) [compound 1498]	1817	–
1511 (CLTEVETPIRLLTEVETPICETPIRNEWG; epitope peptide; MISC_FEATURE (1)..(1): C is an attachment site for a CLIP; MISC_FEATURE (10)..(10): R is an attachment site for a CLIP; MISC_FEATURE (11)..(11): L is an attachment site for a CLIP; MISC_FEATURE (29)..(29): G is an attachment site for a CLIP) [compound 1511]	–	2175
1512 (CTEVETPIRNLLTEVETPICETPIRNEWG; epitope peptide; MISC_FEATURE (1)..(1): C is an attachment site for a CLIP; MISC_FEATURE (10)..(10): N is an attachment site for a CLIP; MISC_FEATURE (11)..(11): L is an attachment site for a CLIP; MISC_FEATURE (29)..(29): G is an attachment site for a CLIP) [compound 1512]	–	2645
1513 (CEVETPIRNELLTEVETPICETPIRNEWG; epitope peptide; MISC_FEATURE (1)..(1): C is an attachment site for a CLIP; MISC_FEATURE (10)..(10): E is an attachment site for a CLIP; MISC_FEATURE (11)..(11): L is an attachment site for a CLIP; MISC_FEATURE (29)..(29): G is an attachment site for a CLIP) [compound 1513]	–	2466
1514 (CVETPIRNEWLLTEVETPICETPIRNEWG; epitope peptide; MISC_FEATURE (1)..(1): C is an attachment site for a CLIP; MISC_FEATURE (10)..(10): W is an attachment site for a CLIP; MISC_FEATURE (11)..(11): L is an attachment site for a CLIP; MISC_FEATURE (29)..(29): G is an attachment site for a CLIP) [compound 1514]	–	2575
1515 (CETPIRNEWGLLTEVETPICETPIRNEWG; epitope peptide; MISC_FEATURE (1)..(1): C is an attachment site for a CLIP; MISC_FEATURE (10)..(10): G is an attachment site for a CLIP; MISC_FEATURE (11)..(11): L is an attachment site for a CLIP; MISC_FEATURE (29)..(29): G is an attachment site for a CLIP) [compound 1515]	–	2427
1534 (SLLCEVETPIRNEWGCRCNDSSD; epitope peptide) [compound 1534]	–	2161
1550 (SLLCEVGCLLTEV; epitope peptide) [compound 1550]	–	1997
1551 (SLLCEVGSCLTEV; epitope peptide) [compound 1551]	–	2499
1552 (SLLCEVGSLCTEV; epitope peptide) [compound 1552]	–	2722
1553 (CLLTEVGSLLCEV; epitope peptide) [compound 1553]	–	2168
1554 (SLLCEVGSLLCEV; epitope peptide) [compound 1554]	–	2399
1555 (SLLTCVGSLLCEV; epitope peptide) [compound 1555]	–	2264
1556 (CSCLCEVGSLLCEV; epitope peptide) [compound 1556]	–	1583

Substance	Signal (peptides that bind to Z3G1)	Signal (peptides that show specific binding to Z3G1)
1557 (CLCTCVGSLLCEV; epitope peptide) [compound 1557]	–	2246
1558 (SCLCECGSLLCEV; epitope peptide) [compound 1558]	–	1747
1559 (SLLCEVGSLLTCV; epitope peptide) [compound 1559]	–	1972
1560 (SLLCEVGCSCLCEV; epitope peptide) [compound 1560]	–	2112
1561 (SLLCEVGCLCTCV; epitope peptide) [compound 1561]	–	2331
1562 (SLLCEVGSCLCEC; epitope peptide) [compound 1562]	–	2614
1563 (DLLTEVETPIRNEWGCRCNDSSD; epitope peptide) [compound 1563]	–	2320
1564 (ELLTEVETPIRNEWGCRCNDSSD; epitope peptide) [compound 1564]	–	2201
1565 (FLLTEVETPIRNEWGCRCNDSSD; epitope peptide) [compound 1565]	–	1018
1566 (GLLTEVETPIRNEWGCRCNDSSD; epitope peptide) [compound 1566]	–	2321
1567 (HLLTEVETPIRNEWGCRCNDSSD; epitope peptide) [compound 1567]	–	1946
1568 (ILLTEVETPIRNEWGCRCNDSSD; epitope peptide) [compound 1568]	–	1044
1569 (KLLTEVETPIRNEWGCRCNDSSD; epitope peptide) [compound 1569]	–	1826
1570 (MLLTEVETPIRNEWGCRCNDSSD; epitope peptide) [compound 1570]	–	2126
1571 (NLLTEVETPIRNEWGCRCNDSSD; epitope peptide) [compound 1571]	–	2135
1572 (PLLTEVETPIRNEWGCRCNDSSD; epitope peptide) [compound 1572]	–	1641
